Data on five molecules can be found in patent publication EP4810052A2, “HCRHR2 SELECTIVE POLYPEPTIDES” (Gubra A/S, priority 2023, dated 2026).

Like-named read-outs stand apart in the source and are kept apart here. Starred links: 1 amine or outer side, 2 acyl side, 3 side chain; linkers in the order of their positions; H or OH if unused. Non-standard residues stand in square brackets, D forms with d. Residues, ends and D or L forms follow the SMILES beside them. Groups on a side chain read outwards from the residue. *: point of attachment. C20 diacid = O=C(O)CCCCCCCCCCCCCCCCCCC(=O)*; γGlu = O=C(O)[C@H](CCC(=O)[*:2])N[*:1]; NMeI = CC[C@H](C)[C@H](NC)C(=O)O; Nle = CCCC[C@H](N)C(=O)O; AEEA = NCCOCCOCC(=O)O; Aib = CC(C)(N)C(=O)O

Assay [1] deals with T1, hCRHR2 (Homo sapiens, UniProt Q13324).
T1 sequence (Q13324 1-411): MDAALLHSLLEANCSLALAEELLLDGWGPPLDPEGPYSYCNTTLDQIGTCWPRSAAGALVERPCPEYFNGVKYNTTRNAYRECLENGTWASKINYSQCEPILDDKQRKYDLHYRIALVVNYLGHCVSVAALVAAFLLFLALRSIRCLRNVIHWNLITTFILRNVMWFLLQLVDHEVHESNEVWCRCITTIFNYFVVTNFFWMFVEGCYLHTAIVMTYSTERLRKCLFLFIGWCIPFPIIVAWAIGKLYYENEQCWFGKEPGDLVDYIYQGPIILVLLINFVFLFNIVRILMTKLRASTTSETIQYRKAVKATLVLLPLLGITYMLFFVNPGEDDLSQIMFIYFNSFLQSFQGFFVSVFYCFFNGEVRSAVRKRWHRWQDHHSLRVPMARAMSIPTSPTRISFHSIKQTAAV
Put plainly: HTRF cAMP assay, determination of hCRHR2 potency (peptide libraries 5 conc., purified peptides 11 conc.). The class given is cell-based. In outline: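 Frozen stocks of hCRHR2-expressing CHO-K1 cells, thawed just before testing, received peptide agonists in suspension; cAMP quantified by competitive HTRF immunoassay, with curves fitted by nonlinear regression (variable slope) for EC50.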

The target in assay [2] is T2, hCRHR1 (Homo sapiens, UniProt P34998).
T2 sequence (P34998 24-415): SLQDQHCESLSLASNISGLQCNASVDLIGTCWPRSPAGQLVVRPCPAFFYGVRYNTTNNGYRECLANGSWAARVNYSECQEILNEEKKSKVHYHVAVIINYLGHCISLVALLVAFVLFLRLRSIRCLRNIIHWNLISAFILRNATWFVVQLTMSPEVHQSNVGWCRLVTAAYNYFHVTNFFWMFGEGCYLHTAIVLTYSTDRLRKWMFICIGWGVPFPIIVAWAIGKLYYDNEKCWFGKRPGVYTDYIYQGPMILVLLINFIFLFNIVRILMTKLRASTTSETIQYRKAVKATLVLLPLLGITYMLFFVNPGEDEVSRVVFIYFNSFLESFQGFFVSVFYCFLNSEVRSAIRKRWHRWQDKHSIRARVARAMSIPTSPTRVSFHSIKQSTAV
Put plainly: HTRF cAMP assay, determination of hCRHR1 potency (peptide libraries 5 conc., purified peptides 11 conc.). The class given is cell-based. The source says: HTRF (CisBio) cAMP assay: The assay technology has thoroughly been described in the CisBio HTRF cAMP assay Kit manual (# 62AM4PEC). Briefly, time resolved fluorescence technic was applied to measure cAMP. This technic is based on a competitive immunoassay using cryptate-labelled anti-cAMP antibody and d2-labeled cAMP. In the absence of cellular cAMP, the anti-cAMP cryptate conjugate may get into proximity to cAMP-d2 conjugate and energy (FRET) can be transferred from cryptate to d2. CHO-K1 cells stably expressing the human corticotropin-releasing hormone receptor 1 (Eurofins/DiscoverX Cat #95-0047C2 hCRHR1 stable monoclonal cell lines) were used as cells in suspension, brought to life from frozen cell stocks immediately before assay performance. […] Concentration-response evaluation of compounds was performed with 5 concentrations of agonist peptides and EC50 values were calculated by nonlinear regression using sigmoid concentration-response with variable slope. Concentration-response evaluation of compounds was performed with 11 concentrations of agonist peptides and EC50 values were calculated by nonlinear regression using sigmoid concentration-response with variable slope.

Setting [3] is: library peptides, matched molecular pairs L vs Nle in position X^38, read-out: Potency hCRHR2 pEC50 (converted).
Setting [4] is: library peptides, matched molecular pairs L vs Nle in position X^38, read-out: Potency hCRHR1 pEC50 (converted).
Where [5] appears, read: Table 4, library peptides having X^38 = Nle, read-out: hCRHR2 pEC50 (converted).
The mark [6] stands for this setting: Table 4, library peptides having X^38 = Nle, read-out: hCRHR1 pEC50 (converted).

As to `CCCC[C@H](NC(=O)[C@@H](NC(=O)[C@H](CCC(=O)O)NC(=O)[C@H](C)NC(=O)[C@H](CC(N)=O)NC(=O)[C@@H](NC(=O)[C@H](CCCCNC(=O)COCCOCCNC(=O)COCCOCCNC(=O)CC[C@H](NC(=O)CC[C@H](NC(=O)CCCCCCCCCCCCCCCCCCC(=O)O)C(=O)O)C(=O)O)NC(=O)[C@H](C)NC(=O)[C@H](CCCNC(=N)N)NC(=O)[C@H](CCC(=O)O)NC(=O)[C@H](CCCNC(=N)N)NC(=O)[C@H](C)NC(=O)[C@H](C)NC(=O)[C@H](CCCNC(=N)N)NC(=O)[C@H](C)NC(=O)[C@H](CCCNC(=N)N)NC(=O)[C@H](C)NC(=O)[C@H](CCC(N)=O)NC(=O)[C@H](CCC(=O)O)NC(=O)[C@H](CC(C)C)NC(=O)[C@H](CC(C)C)NC(=O)[C@@H](NC(=O)[C@H](CCC(N)=O)NC(=O)[C@H](CC(C)C)NC(=O)[C@H](CC(C)C)NC(=O)CNC(=O)[C@@H](NC(=O)[C@@H]1CCCN1C(=O)[C@@H](NC(=O)[C@H](CC(=O)O)NC(=O)[C@H](CC(C)C)NC(=O)[C@H](CO)NC(=O)[C@H](CC(C)C)NC(=O)[C@@H](NC(=O)[C@@H](N)[C@@H](C)CC)C(C)C)C(C)C)[C@@H](C)CC)[C@@H](C)CC)[C@@H](C)O)[C@@H](C)CC)C(=O)N[C@@H](C)C(=O)N[C@@H](CCC(=O)O)C(=O)N[C@H](C(N)=O)C(C)C` [compound 67] (H-IVLSLDVPIGLLQILLEQARARAARERAK([AEEA-AEEA-γGlu-γGlu-C20 diacid])TNAEI[Nle]AEV-NH2), the EC50 in assay [1] is 0.126 nM; in assay [2], 2000 nM.

Turning to `CCCC[C@H](NC(=O)[C@@H](NC(=O)[C@H](CCC(=O)O)NC(=O)[C@H](C)NC(=O)[C@H](CC(N)=O)NC(=O)[C@@H](NC(=O)[C@H](CCCCNC(=O)COCCOCCNC(=O)COCCOCCNC(=O)CC[C@H](NC(=O)CC[C@H](NC(=O)CCCCCCCCCCCCCCCCCCC(=O)O)C(=O)O)C(=O)O)NC(=O)[C@H](C)NC(=O)[C@H](CCC(N)=O)NC(=O)[C@H](CCC(N)=O)NC(=O)[C@H](CCCNC(=N)N)NC(=O)[C@H](CC(C)C)NC(=O)[C@H](C)NC(=O)[C@H](CCC(=O)O)NC(=O)[C@H](C)NC(=O)[C@H](CCCNC(=N)N)NC(=O)[C@H](C)NC(=O)[C@H](CCC(N)=O)NC(=O)[C@H](CCC(=O)O)NC(=O)[C@H](CC(C)C)NC(=O)[C@H](CC(C)C)NC(=O)[C@@H](NC(=O)[C@H](CCC(N)=O)NC(=O)[C@H](CC(C)C)NC(=O)[C@H](CC(C)C)NC(=O)CNC(=O)[C@@H](NC(=O)[C@@H]1CCCN1C(=O)[C@@H](NC(=O)[C@H](CC(=O)O)NC(=O)[C@H](CC(C)C)NC(=O)[C@H](CO)NC(=O)[C@H](CC(C)C)NC(=O)[C@@H](NC(=O)[C@@H](N)[C@@H](C)CC)C(C)C)C(C)C)[C@@H](C)CC)[C@@H](C)CC)[C@@H](C)O)[C@@H](C)CC)C(=O)N[C@@H](C)C(=O)N[C@@H](CCC(=O)O)C(=O)N[C@H](C(N)=O)C(C)C` [compound 59] (H-IVLSLDVPIGLLQILLEQARAEALRQQAK([AEEA-AEEA-γGlu-γGlu-C20 diacid])TNAEI[Nle]AEV-NH2), the EC50 in assay [1] (setting [3]) is 0.158 nM; in assay [2] (setting [4]), 5.01 nM.

On to `CC[C@H](C)[C@H](N)C(=O)N[C@H](C(=O)N[C@@H](CC(C)C)C(=O)N[C@@H](CO)C(=O)N[C@@H](CC(C)C)C(=O)N[C@@H](CC(=O)O)C(=O)N[C@H](C(=O)N1CCC[C@H]1C(=O)N[C@H](C(=O)NCC(=O)N[C@@H](CC(C)C)C(=O)N[C@@H](CC(C)C)C(=O)N[C@@H](CCC(N)=O)C(=O)N[C@H](C(=O)N[C@@H](CC(C)C)C(=O)N[C@@H](CC(C)C)C(=O)N[C@@H](CO)C(=O)N[C@@H](CCC(N)=O)C(=O)N[C@@H](C)C(=O)N[C@@H](CCCNC(=N)N)C(=O)N[C@@H](C)C(=O)N[C@@H](CCCNC(=N)N)C(=O)N[C@@H](C)C(=O)N[C@@H](C)C(=O)N[C@@H](CCCNC(=N)N)C(=O)N[C@@H](CCC(=O)O)C(=O)N[C@@H](CCC(N)=O)C(=O)N[C@@H](C)C(=O)N[C@@H](CCCCNC(=O)COCCOCCNC(=O)COCCOCCNC(=O)CC[C@H](NC(=O)CC[C@H](NC(=O)CCCCCCCCCCCCCCCCCCC(=O)O)C(=O)O)C(=O)O)C(=O)N[C@H](C(=O)N[C@@H](CC(N)=O)C(=O)N[C@@H](C)C(=O)N[C@@H](CCC(=O)O)C(=O)N[C@H](C(=O)N[C@@H](CC(C)C)C(=O)N[C@@H](C)C(=O)N[C@@H](CCC(=O)O)C(=O)N[C@H](C(N)=O)C(C)C)[C@@H](C)CC)[C@@H](C)O)[C@@H](C)CC)[C@@H](C)CC)C(C)C)C(C)C` [compound 82] (H-IVLSLDVPIGLLQILLSQARARAAREQAK([AEEA-AEEA-γGlu-γGlu-C20 diacid])TNAEILAEV-NH2), for which the EC50 is 0.631 nM in assay [1] (setting [3]) and 158000 nM in assay [2] (setting [4]).

Regarding `CCCC[C@H](NC(=O)[C@@H](NC(=O)[C@H](CCC(=O)O)NC(=O)C(C)(C)NC(=O)[C@H](CC(N)=O)NC(=O)[C@@H](NC(=O)[C@H](CCCCNC(=O)COCCOCCNC(=O)COCCOCCNC(=O)CC[C@H](NC(=O)CC[C@H](NC(=O)CCCCCCCCCCCCCCCCCCC(=O)O)C(=O)O)C(=O)O)NC(=O)[C@H](C)NC(=O)[C@H](CCC(N)=O)NC(=O)[C@H](CCC(=O)O)NC(=O)[C@H](CCCNC(=N)N)NC(=O)[C@H](C)NC(=O)[C@H](C)NC(=O)[C@H](CCCNC(=N)N)NC(=O)[C@H](C)NC(=O)[C@H](CCCNC(=N)N)NC(=O)[C@H](C)NC(=O)[C@H](CCC(N)=O)NC(=O)[C@H](CCC(=O)O)NC(=O)[C@H](CC(C)C)NC(=O)[C@H](CC(C)C)NC(=O)[C@@H](NC(=O)[C@H](CCC(N)=O)NC(=O)[C@H](CC(C)C)NC(=O)[C@H](CC(C)C)NC(=O)CNC(=O)[C@@H](NC(=O)[C@@H]1CCCN1C(=O)[C@@H](NC(=O)[C@H](CC(=O)O)NC(=O)[C@H](CC(C)C)NC(=O)[C@H](CO)NC(=O)[C@H](CC(C)C)NC(=O)[C@@H](NC(=O)[C@@H](NC)[C@@H](C)CC)C(C)C)C(C)C)[C@@H](C)CC)[C@@H](C)CC)[C@@H](C)O)[C@@H](C)CC)C(=O)N[C@@H](C)C(=O)N[C@@H](CCC(=O)O)C(=O)N[C@H](C(N)=O)C(C)C` [compound 205] (H-[NMeI]VLSLDVPIGLLQILLEQARARAAREQAK([AEEA-AEEA-γGlu-γGlu-C20 diacid])TN[Aib]EI[Nle]AEV-NH2), the figures for the EC50 in assay [1] (setting [5]) and in assay [2] (setting [6]) were 0.0631 nM and 1260 nM, respectively. Also, the “Selectivity hCRHR1 EC50/hCRHR2 EC50” value in assay [1] (Table 4, ratio, or comparison with Ref. 1 (SEQ ID NO: 205) / Ref. 2 (SEQ ID NO: 124)) is 20689.

As to `CCCC[C@H](NC(=O)[C@@H](NC(=O)[C@H](CCC(=O)O)NC(=O)C(C)(C)NC(=O)[C@H](CC(N)=O)NC(=O)[C@@H](NC(=O)[C@H](CCCCNC(=O)COCCOCCNC(=O)COCCOCCNC(=O)CC[C@H](NC(=O)CC[C@H](NC(=O)CCCCCCCCCCCCCCCCCCC(=O)O)C(=O)O)C(=O)O)NC(=O)[C@H](C)NC(=O)[C@H](CCC(N)=O)NC(=O)[C@H](CCC(=O)O)NC(=O)[C@H](CCCNC(=N)N)NC(=O)[C@H](C)NC(=O)[C@H](C)NC(=O)[C@H](CCCNC(=N)N)NC(=O)[C@H](C)NC(=O)[C@H](CCCNC(=N)N)NC(=O)[C@H](C)NC(=O)[C@H](CCC(N)=O)NC(=O)[C@@H](NC(=O)[C@H](CC(C)C)NC(=O)[C@H](CC(C)C)NC(=O)[C@@H](NC(=O)[C@H](CCC(N)=O)NC(=O)[C@H](CC(C)C)NC(=O)[C@H](CC(C)C)NC(=O)CNC(=O)[C@@H](NC(=O)[C@@H]1CCCN1C(=O)[C@@H](NC(=O)[C@H](CC(=O)O)NC(=O)[C@H](CC(C)C)NC(=O)[C@H](CO)NC(=O)[C@H](CC(C)C)NC(=O)[C@@H](NC(=O)[C@@H](NC)[C@@H](C)CC)C(C)C)C(C)C)[C@@H](C)CC)[C@@H](C)CC)C(C)C)[C@@H](C)O)[C@@H](C)CC)C(=O)N[C@@H](C)C(=O)N[C@@H](CCC(=O)O)C(=O)N[C@H](C(N)=O)C(C)C` [compound 231] (H-[NMeI]VLSLDVPIGLLQILLVQARARAAREQAK([AEEA-AEEA-γGlu-γGlu-C20 diacid])TN[Aib]EI[Nle]AEV-NH2), the EC50 in assay [1] (setting [5]) was 0.0631 nM; in assay [2] (setting [6]), 2510 nM.
